# Measured values reported in patent publication US9464064B2, “HCV helicase inhibitors and methods of use thereof” (University of Kansas, priority 2011, dated 2016).
# Target: MBHA DNA substrate
# Assay: Fluorescent intercalation displacement (FID) assay, ethidium bromide
# Assay type: binding
# Conditions: FID; mean ± SD; read-out: DNA Binding (Ethidium Bromide) EC50
# Protocol: Fluorescent intercalation displacement (FID) assays (Boger, et al. (2001) J. Am. Chem. Soc. 123:5878-5891) were used to measure the ability of a compound to bind the MBHA substrate. The concentration at which half the ethidium bromide is displaced (EC50) was determined using the different conditions as above to more closely mimic the conditions of a standard helicase assay. Each 100 μL reaction contained 25 mM MOPS pH 6.5, 0.16 μM MBHA DNA substrate (lacking Cy5 and IBQ-RQ modifications), 2 μM ethidium bromide, and various concentrations of test compound. Fluorescence of ethidium bromide was monitored using excitation and emission wavelengths of 545 and 595 nm, respectively, on a Cary Eclipse fluorescence spectrophotometer in white 96-well plates. The amount of ethidium bromide-DNA complex fluorescence was used to estimate the ability of compounds to bind DNA, and therefore displace the fluorescent intercalator (ethidium bromide).
# In Equation 4, Fc is the fluorescence in the presence of the compound, F(−) is the average DMSO-only negative controls, and F(+) is the average positive controls (100 μM berenil). EC50 values were from a normalized dose-response curve.
# These twelve hits were then subjected to a counterscreen designed to independently identify DNA binding compounds using a modified fluorescent intercalator displacement (FID) assay (Boger, et al. (2001) supra). The FID assay used ethidium bromide to judge a compound's ability to bind DNA and was based on the assumption that a DNA binding compound would displace a fluorescent DNA intercalating agent, leading to an observable decrease in observed fluorescence. Compounds were tested at 1.5 μM in the presence of the 25 base pair substrate used in the helicase assays.
row,Compound,EC50 [µM]
1,"Cc1ccc2nc(-c3ccc4nc(-c5ccc(N)cc5)sc4c3)sc2c1S(=O)(=O)O [Compound P2a, 2′-(4-aminophenyl)-6-methyl-[2,6′-bibenzo[d]thiazole]-7-sulfonic acid]",> 100
2,"Cc1ccc2nc(-c3ccc4nc(-c5ccc6nc(-c7ccc8nc(-c9ccc(N)cc9)sc8c7)sc6c5)sc4c3)sc2c1S(=O)(=O)O [Compound P4, 2′″-(4-aminophenyl)-6-methyl-[2,6′:2″,6′″-quaterbenzo[d]thiazole]-7-sulfonic acid]",15 ± 3
3,"Cc1ccc2nc(-c3ccc4nc(-c5ccc6nc(-c7ccc(N)cc7)sc6c5)sc4c3)sc2c1S(=O)(=O)O [Compound P3, 2″-(4-aminophenyl)-6-methyl-[2,6′:2′,6″-terbenzo[d]thiazole]-7-sulfonic acid]",55 ± 20

# Target: T1, NS3h_2a(JFH1) (Hepatitis C virus genotype 2a, UniProt Q99IB8)
# T1 construct: truncated C-terminally His-tagged NS3 proteins lacking the N-terminal protease, called NS3h; His-tag (C); made in house
# T1 sequence (Q99IB8 1196-1661): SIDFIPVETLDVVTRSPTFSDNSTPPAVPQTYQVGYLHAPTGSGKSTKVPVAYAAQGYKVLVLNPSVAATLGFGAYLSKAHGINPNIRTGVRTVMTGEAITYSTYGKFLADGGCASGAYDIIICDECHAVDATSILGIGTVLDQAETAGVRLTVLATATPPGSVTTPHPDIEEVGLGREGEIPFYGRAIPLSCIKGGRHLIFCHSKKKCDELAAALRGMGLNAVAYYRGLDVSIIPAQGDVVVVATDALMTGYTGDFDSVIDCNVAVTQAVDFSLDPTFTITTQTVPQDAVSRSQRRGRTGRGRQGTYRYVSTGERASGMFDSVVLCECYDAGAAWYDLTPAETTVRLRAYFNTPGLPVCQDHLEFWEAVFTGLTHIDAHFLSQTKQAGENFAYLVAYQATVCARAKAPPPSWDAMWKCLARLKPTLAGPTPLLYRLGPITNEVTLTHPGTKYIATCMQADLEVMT
# Assay: NS3 intrinsic protein fluorescence titration
# Assay type: binding, hepatitis C virus genotype 2a(JFH1)
# Conditions: corrected for inner filter effects
# Protocol: Compound effects on NS3 intrinsic protein fluorescence were determined by adding aliquots of each compound (1 μl of a 1 mM solution in DMSO) sequentially to 50, 100, or 200 nM of NS3h_2a(JFH1), or 100 nM scNS4A-NS3 dissolved in 2 ml of 25 mM MOPS pH 7, 1.25 mM MgCl2, 0.01% (v/v) TWEEN 20 and 0.3 mM DTT. The titrations were performed in a stirred, temperature-controlled 1 cm cuvette at 23° C. in a Cary Eclipse Fluorescence Spectrophotometer (Agilent Technologies). Intrinsic protein fluorescence was recorded by exciting the sample at 280 nm and reading emission at 340 nm. Excitation and emission slit widths were set to 5 and 10 nm, respectively. All raw fluorescence data were corrected for sample dilution and inner filter effects using Equation 5: Fc=Fobs(V0+Vi)/V0*10^(Aex+Aem/2) (Equation 5) where Fc is corrected fluorescence, Fobs is observed fluorescence, V0 is initial sample volume, Vi is total volume of titrant added, Aex is the absorbance of the solution at the excitation wavelength (280 nm), and Aem is the absorbance of the solution at the emission wavelength (340 nm). Absorbance was calculated at each point in the titrations from extinction coefficients for each compound in titration buffer, which were calculated at 280 nm and 340 nm using four different compound concentrations. […] Fc=F0−(ΔFmax*[…]/(Kd^n+(C)^n)) (Equation 6) In equation 6, […], F0 is fluorescence in the absence of compound, ΔFmax is the maximum change in fluorescence, n is the Hill coefficient, and C is compound concentration.
# To examine the direct interaction of the compounds with NS3, the effect of a select few compound on NS3 intrinsic protein fluorescence was analyzed. This technique has been widely used to monitor the interaction of NS3 with its nucleic acid ligands (Lam, et al. (2004) Nucleic Acids Res. 32:4060-4070; Levin & Patel (2002) J. Biol. Chem. 277:29377-29385; Preugschat, et al. (1996) J. Biol. Chem. 271:24449-24457) and other small molecules (Belon, et al. (2010) supra). […] Of note is the fact that, unlike compounds that simply compete for the nucleic acid binding site (e.g., (BIP)2B; Belon, et al. (2010) supra), the primuline derivatives bound NS3h cooperatively as evident from their sigmoid binding isotherms and Hill coefficients greater than one (Equation 6). When compounds were tested against scNS4A-NS3, binding again was detected and apparent affinity for the full-length complex was about 5 times higher than it was for NS3h.
row,Compound,interaction with NS3 (intrinsic protein fluorescence)
1,"Cc1ccc2nc(-c3ccc4nc(-c5ccc(NC(=O)c6cc(C(F)(F)F)cc(C(F)(F)F)c6)cc5)sc4c3)sc2c1S(=O)(=O)O [Compound 24, 2′-(4-(3,5-bis(trifluoromethyl)benzamido)phenyl)-6-methyl-[2,6′-bibenzo[d]thiazole]-7-sulfonic acid]",clear interaction
2,"Cc1ccc2nc(-c3ccc4nc(-c5ccc(NC(=O)c6ccc(C(F)(F)F)cc6)cc5)sc4c3)sc2c1S(=O)(=O)O [Compound 12, 6-methyl-2′-(4-(4-(trifluoromethyl)benzamido)phenyl)-[2,6′-bibenzo[d]thiazole]-7-sulfonic acid]",clear interaction
3,"Cc1ccc2nc(-c3ccc4nc(-c5ccc(NC(=O)c6cccc(Cl)c6)cc5)sc4c3)sc2c1S(=O)(=O)O [Compound 17, 2′-(4-(3-chlorobenzamido)phenyl)-6-methyl-[2,6′-bibenzo[d]thiazole]-7-sulfonic acid]",clear interaction
4,"Cc1ccc2nc(-c3ccc4nc(-c5ccc(NC(=O)c6ccc7ccccc7c6)cc5)sc4c3)sc2c1S(=O)(=O)O [Compound 33, 2′-(4-(2-naphthamido)phenyl)-6-methyl-[2,6′-bibenzo[d]thiazole]-7-sulfonic acid]",clear interaction
